Test results taken from the supplement of paper PMC10331698.
± gives the standard deviation of the averaged measurements.

What was measured:
Assay in all cases: level (log10 ratio to DMSO vehicle control); higher = higher biomarker level / cell amount than vehicle control
Conditions in all cases: in DMSO
[1] = compound: O=S(=O)(O)C(F)(F)C(F)(F)C(F)(F)C(F)(F)F [Perfluorobutanesulfonic acid]
Method: (§1)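 BioMAP Diversity Plus panel of 12 human primary cell co-culture systems (3C, 4H, LPS, SAg, BT, BF4T, BE3C, CASM3C, HDF3CGF, KF3CT, MyoF, Mphg). Compounds were added 1 h before stimulation and left for 24 h (MyoF 48 h; BT 72 h for soluble read-outs or 6 d for IgG). Biomarkers were read by ELISA, cytotoxicity by SRB, PBMC viability and proliferation by Alamar Blue. Each well value was divided by the mean of 8 DMSO control wells on the same plate and log10 transformed; duplicate blinded samples were tested at 4 concentrations.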

[2] = compound: Cn1cnc([N+](=O)[O-])c1Sc1ncnc2[nH]cnc12 [Azathioprine]
Method: as §1

[3] = compound: O=C(O)C(F)(F)OC(F)(F)C(F)(F)OC(F)(F)C(F)(F)C(F)(F)C(F)(F)F [Perfluoro-3,6-dioxadecanoic acid]
Method: as §1

[4] = compound: NC(=O)C(F)(F)C(F)(F)C(F)(F)C(F)(F)C(F)(F)C(F)(F)C(F)(F)F [Perfluorooctanamide]
Method: as §1

[5] = compound: OCC(F)(F)C(F)(F)C(F)(F)F [1H,1H-Heptafluorobutanol]
Method: as §1

[6] = compound: O=C(O)C(F)(F)C(F)(F)C(F)(F)C(F)(F)C(F)(F)C(F)(F)C(F)(F)C(F)(F)Cl [9-Chloro-perfluorononanoic acid]
Method: as §1

[7] = compound: CCCCCCCCC(F)(F)C(F)(F)C(F)(F)C(F)(F)C(F)(F)C(F)(F)F [1-(Perfluorohexyl)octane]
Method: as §1

Row | Test System | level (log10) ([1]; 6700 nM) | level (log10) ([1]; 20000 nM) | level (log10) ([1]; 60000 nM) | level (log10) ([2]; 1400 nM) | level (log10) ([2]; 4200 nM) | level (log10) ([2]; 13000 nM) | level (log10) ([2]; 38000 nM) | level (log10) ([3]; 6700 nM) | level (log10) ([3]; 20000 nM) | level (log10) ([3]; 60000 nM) | level (log10) ([4]; 6700 nM) | level (log10) ([4]; 20000 nM) | level (log10) ([4]; 60000 nM) | level (log10) ([5]; 6700 nM) | level (log10) ([5]; 20000 nM) | level (log10) ([5]; 60000 nM) | level (log10) ([6]; 6700 nM) | level (log10) ([6]; 20000 nM) | level (log10) ([7]; 6700 nM) | level (log10) ([7]; 20000 nM)
1 | CASM3C:CD87/uPAR | -0.0275 ± 0.03 | -0.047 ± 0.045 | -0.0575 ± 0.0092 | 0.0115 ± 0.0021 | 0.014 ± 0.0099 | -0.002 ± 0.067 | -0.0325 ± 0.0035 | 0.001 ± 0.0014 | -0.0055 ± 0.0064 | -0.0175 ± 0.025 | -0.009 ± 0.0014 | -0.001 ± 0.024 | 0.0045 ± 0.0092 | -0.0045 ± 0.026 | -0.013 ± 0.016 | 0.015 ± 0.011 | -0.002 | 0.02 ± 0.0071 | -0.0175 ± 0.0078 | -0.005 ± 0.011
2 | HDF3CGF:SRB | 0.018 ± 0.03 | 0.023 ± 0.013 | 0.004 ± 0.033 | -0.0505 ± 0.04 | -0.053 ± 0.02 | -0.018 ± 0.025 | -0.0325 ± 0.079 | 0.0265 ± 0.033 | 0.0885 ± 0.022 | 0.0485 ± 0.079 | 0.01 ± 0.028 | -0.0025 ± 0.033 | 0.0285 ± 0.019 | -0.047 ± 0.067 | 0.0415 ± 0.011 | 0.025 ± 0.033 | 0.081 ± 0.016 | 0.065 ± 0.033 | 0.0105 ± 0.11 | 0.022 ± 0.057
3 | MyoF:Collagen I | -0.017 ± 0.023 | -0.004 ± 0.0014 | -0.0235 ± 0.0064 | -0.0085 ± 0.015 | -0.0095 ± 0.013 | -0.024 | 0.011 ± 0.0028 | -0.026 ± 0.025 | -0.0525 ± 0.0021 | -0.19 ± 0.011 | -0.007 ± 0.0099 | -0.0265 ± 0.015 | -0.0435 ± 0.0035 | -0.01 ± 0.024 | -0.0065 ± 0.022 | -0.0005 ± 0.013 | -0.0135 ± 0.005 | -0.29 ± 0.019 | 0.0045 ± 0.016 | -0.0205 ± 0.0035
4 | MyoF:CXCL8/IL-8 | 0.007 ± 0.042 | 0.0425 ± 0.021 | 0.0665 ± 0.0064 | 0.009 ± 0.014 | 0.023 ± 0.017 | 0.027 ± 0.02 | 0.0395 ± 0.015 | 0.011 ± 0.011 | 0.0335 ± 0.013 | 0.0145 ± 0.0021 | -0.01 ± 0.0071 | 0.0135 ± 0.023 | 0.03 ± 0.014 | -0.0145 ± 0.033 | 0.016 ± 0.02 | 0.008 ± 0.0057 | 0.0025 ± 0.015 | -0.06 ± 0.0057 | 0.0015 ± 0.029 | 0.028 ± 0.011
5 | KF3CT:CXCL10/IP-10 | 0.0305 ± 0.025 | 0.0385 ± 0.028 | 0.0405 ± 0.019 | 0.0135 ± 0.00071 | -0.0035 ± 0.0021 | -0.0105 ± 0.011 | -0.0035 ± 0.019 | -0.022 ± 0.0042 | -0.0335 ± 0.011 | -0.113 ± 0.028 | 0.0285 ± 0.036 | 0.0365 ± 0.037 | 0.0365 ± 0.016 | 0.004 ± 0.0042 | -0.0025 ± 0.016 | 0.012 ± 0.0071 | -0.0235 ± 0.0035 | -0.0715 ± 0.0092 | -0.0055 ± 0.018 | -0.011 ± 0.0099
6 | KF3CT:PAI-I | -0.014 ± 0.048 | 0.003 ± 0.0099 | -0.007 ± 0.027 | 0.01 ± 0.024 | -0.0105 ± 0.015 | -0.0365 ± 0.011 | -0.071 ± 0.0071 | -0.007 ± 0.0014 | -0.0325 ± 0.0078 | -0.0495 ± 0.021 | -0.004 ± 0.011 | -0.0085 ± 0.011 | 0.0005 ± 0.0064 | 0.0075 ± 0.0021 | -0.0005 ± 0.0035 | -0.0045 ± 0.0021 | -0.01 ± 0.0057 | -0.101 ± 0.0078 | 0.0165 ± 0.0078 | 0.026 ± 0.011
7 | KF3CT:uPA | -0.0275 ± 0.029 | -0.0215 ± 0.00071 | -0.0035 ± 0.00071 | 0.011 ± 0.0028 | 0.015 ± 0.016 | -0.003 ± 0.0071 | -0.0025 ± 0.0078 | -0.0095 ± 0.0064 | -0.0065 ± 0.03 | 0.0095 ± 0.005 | -0.012 ± 0.037 | 0.0035 ± 0.015 | -0.0155 ± 0.012 | 0.0095 ± 0.0021 | 0.0015 ± 0.0078 | 0.0065 ± 0.00071 | 0.0095 ± 0.0078 | 0.01 | 0.01 ± 0.024 | -0.0055 ± 0.029
8 | 3C:CD62E/E-Selectin | -0.0165 ± 0.022 | -0.008 ± 0.021 | 0.0045 ± 0.021 | -0.0005 ± 0.012 | -0.013 ± 0.03 | -0.033 ± 0.0099 | -0.0015 ± 0.0078 | 0.0155 ± 0.043 | -0.001 ± 0.037 | 0.004 ± 0.052 | -0.009 ± 0.013 | -0.0115 ± 0.0078 | 0.004 ± 0.025 | -0.006 ± 0.0028 | -0.0025 ± 0.0035 | 0.015 ± 0.016 | -0.005 ± 0.0057 | 0.001 ± 0.017 | -0.0065 ± 0.011 | -0.02 ± 0.0071
9 | MyoF:SRB | -0.002 ± 0.0071 | -0.0035 ± 0.00071 | 0.0085 ± 0.00071 | -0.0055 ± 0.0092 | 0.0015 ± 0.0021 | 0.0005 ± 0.0035 | -0.015 ± 0.0057 | 0 | -0.002 | -0.0515 ± 0.0092 | -0.006 ± 0.0042 | 0.0045 ± 0.012 | -0.0055 ± 0.011 | 0.0015 ± 0.00071 | -0.004 ± 0.0028 | -0.004 ± 0.0057 | -0.004 | -0.0605 ± 0.005 | 0.011 ± 0.016 | 0.006 ± 0.0042
10 | KF3CT:IL-1alpha | -0.009 ± 0.0042 | -0.0085 ± 0.0078 | -0.006 ± 0.025 | -0.015 ± 0.0099 | 0.01 ± 0.013 | 0.0115 ± 0.005 | 0.035 ± 0.0042 | 0.022 ± 0.0057 | -0.0495 ± 0.013 | -0.0295 ± 0.005 | -0.0055 ± 0.011 | 0.0125 ± 0.0064 | 0.039 ± 0.03 | 0 ± 0.0042 | 0 ± 0.0014 | -0.018 ± 0.0057 | -0.0295 ± 0.042 | -0.056 ± 0.031 | -0.009 ± 0.04 | 0.0175 ± 0.0092
11 | HDF3CGF:CXCL10/IP-10 | -0.0075 ± 0.0078 | -0.0105 ± 0.005 | -0.0195 ± 0.0021 | -0.0225 ± 0.022 | -0.037 ± 0.044 | -0.0825 ± 0.012 | -0.152 ± 0.0078 | -0.0505 ± 0.019 | -0.0745 ± 0.026 | -0.156 ± 0.04 | -0.0165 ± 0.019 | 0.003 ± 0.0014 | 0.0305 ± 0.011 | 0.0105 ± 0.04 | -0.006 ± 0.016 | -0.0055 ± 0.011 | -0.06 ± 0.027 | -0.175 ± 0.0021 | -0.02 ± 0.041 | -0.03 ± 0.055
12 | MyoF:alpha-SM Actin | -0.016 ± 0.0099 | -0.0265 ± 0.0078 | -0.0195 ± 0.005 | 0.037 ± 0.095 | 0.039 ± 0.071 | 0.002 ± 0.078 | -0.0365 ± 0.1 | -0.0155 ± 0.039 | -0.0235 ± 0.018 | -0.05 ± 0.014 | -0.0095 ± 0.005 | -0.023 ± 0.017 | -0.045 ± 0.0085 | 0.0105 ± 0.0064 | -0.0045 ± 0.0078 | -0.004 ± 0.02 | -0.009 ± 0.028 | -0.022 ± 0.013 | -0.0125 ± 0.032 | -0.0095 ± 0.0078
13 | lMphg:CD40 | -0.0015 ± 0.0064 | -0.0065 ± 0.0021 | 0.009 ± 0.0014 | -0.0125 ± 0.04 | -0.0205 ± 0.013 | -0.025 ± 0.0014 | -0.106 ± 0.03 | 0.002 ± 0.047 | -0.0175 ± 0.035 | -0.102 ± 0.023 | -0.0285 ± 0.018 | -0.007 ± 0.014 | 0.045 ± 0.0085 | 0.0045 ± 0.025 | -0.0125 ± 0.059 | -0.0105 ± 0.029 | -0.0165 ± 0.0064 | -0.0155 ± 0.005 | -0.0185 ± 0.011 | -0.023 ± 0.021
